# Assay results: patent US7291612B2, “Immunomodulatory compounds” (Active Biotech A.B., priority 2002, dated 2007)
# Target: T1, CD80-CD28 interaction (Homo sapiens, UniProt P33681)
# T1 construct: mouse Fab fragment (fusion partner)
# T1 sequence (P33681 35-242 limits assumed): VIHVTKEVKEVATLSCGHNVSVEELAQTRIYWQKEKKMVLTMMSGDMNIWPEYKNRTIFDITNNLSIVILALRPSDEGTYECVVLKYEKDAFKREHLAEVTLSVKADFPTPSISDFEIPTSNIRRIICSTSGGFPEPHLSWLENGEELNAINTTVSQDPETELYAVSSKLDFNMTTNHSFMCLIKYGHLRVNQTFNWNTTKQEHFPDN
# Test: cell free Homogenous Time Resolved Fluorescence (HTRF) assay, inhibition of the CD80-CD28 interaction
# Assay type: binding
# Conditions: 4 hours at room temperature, read-out: Activity (EC50 in summary form)
# Method: The examples described above were tested in a cell free Homogenous Time Resolved Fluorescence (HTRF) assay to determine their activity as inhibitors of the CD80-CD28 interaction.
# In the assay, europium and allophycocyanin (APC) are associated with CD28 and CD80 indirectly (through antibody linkers) to form a complex, which brings the europium and APC into close proximity to generate a signal. The complex comprises the following six proteins: fluorescent label 1, linker antibody 1, CD28 fusion protein, CD80 fusion protein, linker antibody 2, and fluorescent label 2. The table below describes these reagents in greater detail.
# On formation of the complex, europium and APC are brought into proximity and a signal is generated.
# Non-specific interaction was measured by substituting a mouse Fab fragment (C215) for the CD80 mouse Fab fragment fusion protein (1.9 μg/ml). The assay was carried out in black 384 well plates in a final volume of 30 μl. Assay buffer: 50 mM Tris-HCl, 150 mM NaCl pH7.8, containing 0.1% BSA (w/v) added just prior to use.
# Compounds were added to the above reagents in a concentration series ranging between 100 μM-1.7 nM. The reaction was incubated for 4 hours at room temperature. Dual measurements were made using a Wallac Victor 1420 Multilabel Counter. First measurement: excitation 340 nm, emission 665 nm, delay 50 μs, window time 200 μs. second measurement: excitation 340 nm, emission 615 nm, delay 50 μs, window time 200 μs. Counts were automatically corrected for fluorescence crossover, quenching and background.
row,EC50 [nM],Structure (SMILES)
1,< 1000,CN(C)CCCN(C)C(=O)c1ccc(-n2nc3c4cccc(F)c4[nH]cc-3c2=O)cc1 [Example 80]
2,< 1000,CN(C)CCCCNC(=O)c1ccc(-n2nc3c4cccc(F)c4[nH]cc-3c2=O)cc1 [Example 81]
3,< 1000,O=C(NCCCCN1CCCC1)c1ccc(-n2nc3c4cccc(F)c4[nH]cc-3c2=O)cc1 [Example 82]
4,< 1000,O=C(NCCCN1CCCC1)c1ccc(-n2nc3c4cccc(F)c4[nH]cc-3c2=O)cc1 [Example 83]
5,< 1000,O=C(NCCN1CCN(Cc2ccccc2)CC1)c1ccc(-n2nc3c4cccc(F)c4[nH]cc-3c2=O)cc1 [Example 84]
6,< 1000,CN(C)CCCNC(=O)c1ccc(-n2nc3c4ccccc4[nH]cc-3c2=O)cc1 [Example 86]
7,1000 to 10000,CCN(CC)CCCCNC(=O)c1ccc(-n2nc3c4ccccc4[nH]cc-3c2=O)cc1 [Example 88]
8,1000 to 10000,CN(C)CCCN(C)C(=O)c1ccc(-n2nc3c4ccccc4[nH]cc-3c2=O)cc1 [Example 89]
9,1000 to 10000,CN(C)CCCNC(=O)c1ccc(-n2nc3c4cccc(F)c4[nH]cc-3c2=O)cc1Cl [Example 90]
10,1000 to 10000,O=C(NCCCN1CCCC1)c1ccc(-n2nc3c4ccccc4[nH]cc-3c2=O)cc1 [Example 91]
11,1000 to 10000,O=C(NCCCN1CCN(Cc2c(F)cccc2Cl)CC1)c1ccc(-n2nc3c4ccccc4[nH]cc-3c2=O)cc1 [Example 92]
12,1000 to 10000,CN1CCN(CCCNC(=O)c2ccc(-n3nc4c5ccccc5[nH]cc-4c3=O)cc2)CC1 [Example 93]
13,1000 to 10000,O=C(NCCN1CCN(Cc2ccccc2)CC1)c1ccc(-n2nc3c4ccccc4[nH]cc-3c2=O)cc1 [Example 94]
14,< 1000,O=C(NCCCN1CCN(Cc2c(F)cccc2Cl)CC1)c1ccc(-n2nc3c4cccc(F)c4[nH]cc-3c2=O)cc1 [Example 95]
15,< 1000,CCN(CC)CCCC(C)NC(=O)c1ccc(-n2nc3c4cccc(F)c4[nH]cc-3c2=O)cc1 (stereo not drawn) [Example 97]
16,< 1000,CN1CCN(CCCNC(=O)c2ccc(-n3nc4c5cccc(F)c5[nH]cc-4c3=O)cc2)CC1 [Example 98]
17,1000 to 10000,O=C(NCCCCN1CCCC1)c1ccc(-n2nc3c4cccc(F)c4[nH]cc-3c2=O)c(Cl)c1 [Example 99]
18,1000 to 10000,CN1CCN(CCCNC(=O)c2ccc(-n3nc4c5cccc(F)c5[nH]cc-4c3=O)cc2Cl)CC1 [Example 100]
19,1000 to 10000,CCN(CC)CCCCNC(=O)c1ccc(-n2nc3c4cccc(F)c4[nH]cc-3c2=O)cc1Cl [Example 102]
20,1000 to 10000,CN(C)CCCNC(=O)c1ccc(-n2nc3c4cccc(F)c4[nH]cc-3c2=O)c(Cl)c1 [Example 103]
21,< 1000,O=C(NCCCCN1CCCC1)c1ccc(-n2nc3c4ccccc4[nH]c(C4CC4)c-3c2=O)cc1 [Example 104]

row,EC50 [nM],Structure (SMILES)
1,> 10000,O=C(c1ccc(-n2nc3c4cccc(F)c4[nH]cc-3c2=O)cc1)N1CCN(Cc2ccc(Cl)cc2)CC1 [Example 105]
2,< 1000,CN(CCCNC(=O)c1ccc(-n2nc3c4cccc(F)c4[nH]cc-3c2=O)cc1)c1ccccc1 [Example 106]
3,1000 to 10000,CC1CCCCN1CCCNC(=O)c1ccc(-n2nc3c4cccc(F)c4[nH]cc-3c2=O)cc1Cl (stereo not drawn) [Example 108]
4,< 1000,CN(C)c1ccc(CNC(=O)c2ccc(-n3nc4c5cccc(F)c5[nH]cc-4c3=O)cc2)cc1 [Example 109]
5,1000 to 10000,CN(C)CCCCNC(=O)c1ccc(-n2nc3c4cccc(F)c4[nH]cc-3c2=O)cc1Cl [Example 110]
6,1000 to 10000,CN1CCN(C(=O)c2ccc(-n3nc4c5cccc(F)c5[nH]cc-4c3=O)cc2)CC1 [Example 111]
7,< 1000,CC1CCCCN1CCCNC(=O)c1ccc(-n2nc3c4cccc(F)c4[nH]cc-3c2=O)cc1 (stereo not drawn) [Example 112]
8,< 1000,O=C(NCCN1CCOCC1)c1ccc(-n2nc3c4cccc(F)c4[nH]cc-3c2=O)cc1 [Example 113]
9,< 1000,CCN1CCCC1CNC(=O)c1ccc(-n2nc3c4cccc(F)c4[nH]cc-3c2=O)cc1 (stereo not drawn) [Example 114]
10,< 1000,CN1C(C)(C)CC(NC(=O)c2ccc(-n3nc4c5cccc(F)c5[nH]cc-4c3=O)cc2)CC1(C)C [Example 115]
11,< 1000,O=C(NC1CCN(Cc2ccccc2)CC1)c1ccc(-n2nc3c4cccc(F)c4[nH]cc-3c2=O)cc1 [Example 116]
12,< 1000,CN(C)CC(C)(C)CNC(=O)c1ccc(-n2nc3c4cccc(F)c4[nH]cc-3c2=O)cc1 [Example 117]
13,< 1000,CC1(C)CC(NC(=O)c2ccc(-n3nc4c5cccc(F)c5[nH]cc-4c3=O)cc2)CC(C)(C)N1 [Example 118]
14,1000 to 10000,O=C(NCCc1cccnc1)c1ccc(-n2nc3c4cccc(F)c4[nH]cc-3c2=O)cc1 [Example 119]
15,< 1000,CCSCCNC(=O)c1ccc(-n2nc3c4cccc(F)c4[nH]cc-3c2=O)cc1 [Example 120]
16,1000 to 10000,O=C(NCCCN1CCCC1=O)c1ccc(-n2nc3c4cccc(F)c4[nH]cc-3c2=O)cc1 [Example 121]
17,< 1000,O=C(NCCCn1ccnc1)c1ccc(-n2nc3c4cccc(F)c4[nH]cc-3c2=O)cc1 [Example 122]
18,1000 to 10000,O=C(NC1CCCCNC1=O)c1ccc(-n2nc3c4cccc(F)c4[nH]cc-3c2=O)cc1 (stereo not drawn) [Example 123]
19,< 1000,CCN(CC)CCCCNC(=O)c1ccc(-n2nc3c4cccc(F)c4[nH]cc-3c2=O)cc1 [Example 124]
20,< 1000,O=C(NC1CCN(Cc2ccccc2)CC1)c1ccc(-n2nc3c4cccc(F)c4[nH]c(C4CC4)c-3c2=O)cc1 [Example 125]
21,> 10000,O=C(NCCc1ccccn1)c1ccc(-n2nc3c4cccc(F)c4[nH]cc-3c2=O)cc1 [Example 127]

row,EC50 [nM],Structure (SMILES)
1,1000 to 10000,CSCCCNC(=O)c1ccc(-n2nc3c4cccc(F)c4[nH]cc-3c2=O)cc1 [Example 128]
2,< 1000,CN1C(C)(C)CC(NC(=O)c2ccc(-n3nc4c5ccccc5[nH]c(C5CC5)c-4c3=O)cc2)CC1(C)C [Example 129]
3,< 1000,O=C(NCCCCN1CCCC1)c1ccc(-n2nc3c4cccc(F)c4[nH]c(C4CC4)c-3c2=O)cc1 [Example 130]
4,< 1000,CN(C)CCCNC(=O)c1ccc(-n2nc3c4cccc(F)c4[nH]c(C4CC4)c-3c2=O)cc1 [Example 132]
5,< 1000,CCN(CC)CCCCNC(=O)c1ccc(-n2nc3c4cccc(F)c4[nH]c(C4CC4)c-3c2=O)cc1 [Example 135]
6,1000 to 10000,CC(C)(C)OC(=O)N1CCC(NC(=O)c2ccc(-n3nc4c5cccc(F)c5[nH]c(C5CC5)c-4c3=O)cc2)CC1 [Example 136]
7,< 1000,O=C(NCCCN1CCN(Cc2c(F)cccc2Cl)CC1)c1ccc(-n2nc3c4cccc(F)c4[nH]c(C4CC4)c-3c2=O)cc1 [Example 137]
8,1000 to 10000,O=C(NCCc1ccccn1)c1ccc(-n2nc3c4cccc(F)c4[nH]c(C4CC4)c-3c2=O)cc1 [Example 138]
9,> 10000,O=C(NCCc1cccnc1)c1ccc(-n2nc3c4cccc(F)c4[nH]c(C4CC4)c-3c2=O)cc1 [Example 139]
10,< 1000,CN(C)CC(C)(C)CNC(=O)c1ccc(-n2nc3c4cccc(F)c4[nH]c(C4CC4)c-3c2=O)cc1 [Example 140]
11,< 1000,O=C(NCCCN1CCCC1)c1ccc(-n2nc3c4cccc(F)c4[nH]c(C4CC4)c-3c2=O)cc1 [Example 141]
12,< 1000,"CCOC(=O)CNC(=O)Nc1ccc(-n2nc3c4cccc(F)c4[nH]cc-3c2=O)cc1 [Example 142, {3-[4-(6-Fluoro-3-oxo-3,5-dihydro-pyrazolo[4,3-c]quinolin-2-yl)-phenyl]-ureido} acetic acid ethyl ester]"
13,< 1000,CCCNC(=O)Nc1ccc(-n2nc3c4cccc(F)c4[nH]cc-3c2=O)cc1 [Example 145]
14,< 1000,CC(C)(C)NC(=O)Nc1ccc(-n2nc3c4cccc(F)c4[nH]cc-3c2=O)cc1 [Example 146]
15,1000 to 10000,O=C(Nc1ccccc1)Nc1ccc(-n2nc3c4cccc(F)c4[nH]cc-3c2=O)cc1 [Example 147]
16,1000 to 10000,O=c1c2c[nH]c3c(F)cccc3c-2nn1-c1ccc(NC(=S)NC2CC2)cc1 [Example 148]
17,> 10000,O=c1c2c[nH]c3c(F)cccc3c-2nn1-c1ccc(NC(=S)NC2CCCCC2)cc1 [Example 149]
18,< 1000,CC(C)(C)OC(=O)Nc1ccc(-n2nc3c4cccc(F)c4[nH]cc-3c2=O)cc1 [Example 150]
19,1000 to 10000,CCOC(=O)Nc1ccc(-n2nc3c4cccc(F)c4[nH]cc-3c2=O)cc1 [Example 151]
20,< 1000,CN(C)CCOC(=O)Nc1ccc(-n2nc3c4cccc(F)c4[nH]cc-3c2=O)cc1 [Example 152]
21,1000 to 10000,COC(=O)Nc1ccc(-n2nc3c4ccccc4[nH]c(C4CC4)c-3c2=O)cc1 [Example 153]

row,Structure (SMILES),EC50 [nM]
1,CN1C2CCC1CC(NC(=O)c1ccc(-n3nc4c5cccc(F)c5[nH]cc-4c3=O)cc1)C2 (stereo not drawn) [Example 131],< 1000
2,CN1C2CCC1CC(NC(=O)c1ccc(-n3nc4c5cccc(F)c5[nH]c(C5CC5)c-4c3=O)cc1)C2 (stereo not drawn) [Example 134],< 1000

# Same assay, conditions: read-out: EC50
row,EC50 [nM],Structure (SMILES)
1,90,O=C(NCCCN1CCCC1)c1ccc(-n2nc3c4cccc(F)c4[nH]cc-3c2=O)cc1 [Example 83]
